Experimental data reported in patent publication US20230136600A1, “Method and device for screening antigen epitope polypeptide” (priority 2020, published 2023).

Assays:
[1] = tested on: novel coronavirus (live coronavirus), vero cells; experiment: In-vitro live virus neutralization experiment with serum of immunized mice (CPE method); assay type: in vivo, SARS-CoV-2; settings: Embodiment I: single peptide 100 μg + MF59 at Day 0, 14, 28, Balb/c mice, serum Day 35
Balb/c mice = experiment: Polypeptide chip-based vaccine immunogenicity scoring system; assay type: in vivo; set-up: key to A2: whether the 95 percentile of the last sampling is increased compared with the end point: Y = rise; N = no rise; settings: for A: 95 percentile grouping number score / B: Mouse performance score: total score = 5; for C1: #A timing-sequence response peptide fragment set / C2: #B vaccine specificity peptide fragment set / C3: Intersection of A and B / C4: Percentage of the intersection in set B / C: Timing-sequence response and specificity score: value of the whole mix
[2] = Embodiment III, polypeptide-KLH
[3] = Embodiment III, polypeptide-KLH, Mix1-10
[4] = Embodiment III, polypeptide-KLH, A*3 + B*2 + C*1
[5] = adjuvant AddaVax, 7 peptides co-immunized in mice
[6] = adjuvant Adju-Phos, 7 peptides co-immunized in mice
[7] = adjuvant Alhydrogel, 7 peptides co-immunized in mice
[8] = adjuvant Imjet Alumn, 7 peptides co-immunized in mice
[9] = adjuvant MA103A, 7 peptides co-immunized in mice
[10] = adjuvant MA103B, 7 peptides co-immunized in mice

YGANKDGI (SARS-CoV-2) [SEQ ID NO:21]
Neutralizing antibody positive rate (%) [1]: 40%
B1: D 0-D 14 95 percentile rise in the number of mice (Balb/c mice; [2]): 3
B2: D 0-D 21 95 percentile rise in the number of mice (Balb/c mice; [2]): 3
B3: D 14-D 21 95 percentile rise in the number of mice (Balb/c mice; [2]): 1
B4: D 21-D 28 95 percentile rise in the number of mice (Balb/c mice; [2]): 1
A1: difference between a highest median and a D 0 median (95 percentile) (Balb/c mice; [3]): 0.08
A2: whether the 95 percentile of the last sampling is increased compared with the end point (Balb/c mice; [3]): Y
Total single peptide (Balb/c mice; [4]): 14.8
A: 95 percentile grouping number score (Balb/c mice; [2]): 3.5
B: Mouse performance score (Balb/c mice; [2]): 1.9
C1: #A timing-sequence response peptide fragment set (Balb/c mice; [2]): 230
C2: #B vaccine specificity peptide fragment set (Balb/c mice; [2]): 251
C3: Intersection of A and B (Balb/c mice; [2]): 1
C4: Percentage of the intersection in set B (Balb/c mice; [2]): 0.398
C: Timing-sequence response and specificity score (Balb/c mice; [2]): 0.5
1) 95 percentile grouping number A (Balb/c mice; [5]): 3.5
1) 95 percentile grouping number A1 (Balb/c mice; [5]): 0.055
2) Mouse performance B (Balb/c mice; [5]): 2.6
2) Mouse performance B1 (Balb/c mice; [5]): 0
2) Mouse performance B2 (Balb/c mice; [5]): 3
2) Mouse performance B3 (Balb/c mice; [5]): 5
3) Timing-sequence response and specificity C (Balb/c mice; [5]): 0
3) Timing-sequence response and specificity C1 (Balb/c mice; [5]): 237
3) Timing-sequence response and specificity C2 (Balb/c mice; [5]): 1244
3) Timing-sequence response and specificity C3 (Balb/c mice; [5]): 0
3) Timing-sequence response and specificity C4 (Balb/c mice; [5]): 0.000
Total single peptide (Balb/c mice; [5]): 15.7
1) 95 percentile grouping number A (Balb/c mice; [6]): 4
1) 95 percentile grouping number A1 (Balb/c mice; [6]): 0.05
2) Mouse performance B (Balb/c mice; [6]): 2.9
2) Mouse performance B1 (Balb/c mice; [6]): 3
2) Mouse performance B2 (Balb/c mice; [6]): 4
2) Mouse performance B3 (Balb/c mice; [6]): 3
3) Timing-sequence response and specificity C (Balb/c mice; [6]): 0
3) Timing-sequence response and specificity C1 (Balb/c mice; [6]): 203
3) Timing-sequence response and specificity C2 (Balb/c mice; [6]): 1244
3) Timing-sequence response and specificity C3 (Balb/c mice; [6]): 0
3) Timing-sequence response and specificity C4 (Balb/c mice; [6]): 0.000
Total single peptide (Balb/c mice; [6]): 17.8
1) 95 percentile grouping number A (Balb/c mice; [7]): 1.5
1) 95 percentile grouping number A1 (Balb/c mice; [7]): 0.025
2) Mouse performance B (Balb/c mice; [7]): 2.4
2) Mouse performance B1 (Balb/c mice; [7]): 4
2) Mouse performance B2 (Balb/c mice; [7]): 2
2) Mouse performance B3 (Balb/c mice; [7]): 2
3) Timing-sequence response and specificity C (Balb/c mice; [7]): 1
3) Timing-sequence response and specificity C1 (Balb/c mice; [7]): 123
3) Timing-sequence response and specificity C2 (Balb/c mice; [7]): 1244
3) Timing-sequence response and specificity C3 (Balb/c mice; [7]): 2
3) Timing-sequence response and specificity C4 (Balb/c mice; [7]): 0.161
Total single peptide (Balb/c mice; [7]): 9.8
1) 95 percentile grouping number A (Balb/c mice; [8]): 2
1) 95 percentile grouping number A1 (Balb/c mice; [8]): 0.025
2) Mouse performance B (Balb/c mice; [8]): 2.4
2) Mouse performance B1 (Balb/c mice; [8]): 0
2) Mouse performance B2 (Balb/c mice; [8]): 4
2) Mouse performance B3 (Balb/c mice; [8]): 4
3) Timing-sequence response and specificity C (Balb/c mice; [8]): 1
3) Timing-sequence response and specificity C1 (Balb/c mice; [8]): 100
3) Timing-sequence response and specificity C2 (Balb/c mice; [8]): 1244
3) Timing-sequence response and specificity C3 (Balb/c mice; [8]): 3
3) Timing-sequence response and specificity C4 (Balb/c mice; [8]): 0.241
Total single peptide (Balb/c mice; [8]): 11.3
1) 95 percentile grouping number A (Balb/c mice; [9]): 3
1) 95 percentile grouping number A1 (Balb/c mice; [9]): 0.042
2) Mouse performance B (Balb/c mice; [9]): 2.6
2) Mouse performance B1 (Balb/c mice; [9]): 4
2) Mouse performance B2 (Balb/c mice; [9]): 3
2) Mouse performance B3 (Balb/c mice; [9]): 2
3) Timing-sequence response and specificity C (Balb/c mice; [9]): 1
3) Timing-sequence response and specificity C1 (Balb/c mice; [9]): 260
3) Timing-sequence response and specificity C2 (Balb/c mice; [9]): 1244
3) Timing-sequence response and specificity C3 (Balb/c mice; [9]): 3
3) Timing-sequence response and specificity C4 (Balb/c mice; [9]): 0.241
Total single peptide (Balb/c mice; [9]): 14.7
1) 95 percentile grouping number A (Balb/c mice; [10]): 2.5
1) 95 percentile grouping number A1 (Balb/c mice; [10]): 0.035
2) Mouse performance B (Balb/c mice; [10]): 2
2) Mouse performance B1 (Balb/c mice; [10]): 4
2) Mouse performance B2 (Balb/c mice; [10]): 2
2) Mouse performance B3 (Balb/c mice; [10]): 1
3) Timing-sequence response and specificity C (Balb/c mice; [10]): 0
3) Timing-sequence response and specificity C1 (Balb/c mice; [10]): 153
3) Timing-sequence response and specificity C2 (Balb/c mice; [10]): 1244
3) Timing-sequence response and specificity C3 (Balb/c mice; [10]): 0
3) Timing-sequence response and specificity C4 (Balb/c mice; [10]): 0.000
Total single peptide (Balb/c mice; [10]): 11.5

VYDPLQPEL (SARS-CoV-2) [SEQ ID NO:34]
Neutralizing antibody positive rate (%) [1]: 20%
A2: whether the 95 percentile of the last sampling is increased compared with the end point (Balb/c mice; Embodiment II, Combination 1): N
B1: D 0-D 14 95 percentile rise in the number of mice (Balb/c mice; Embodiment II, Combination 1): 5
B2: D 0-D 21 95 percentile rise in the number of mice (Balb/c mice; Embodiment II, Combination 1): 0
B3: D 14-D 21 95 percentile rise in the number of mice (Balb/c mice; Embodiment II, Combination 1): 0
B4: D 21-D 28 95 percentile rise in the number of mice (Balb/c mice; Embodiment II, Combination 1): 1
Total single peptide (Balb/c mice; Embodiment II, Combination 1, A*3 + B*2 + C*1): 18.9
A: 95 percentile grouping number score (Balb/c mice; Embodiment II, Combination 1): 5
B: Mouse performance score (Balb/c mice; Embodiment II, Combination 1): 1.7
A1: difference between a highest median and a D 0 median (95 percentile) (Balb/c mice; Embodiment II, mice immunized with Combination 1): 0.21
B1: D 0-D 14 95 percentile rise in the number of mice (Balb/c mice; [2]): 3
B2: D 0-D 21 95 percentile rise in the number of mice (Balb/c mice; [2]): 3
B3: D 14-D 21 95 percentile rise in the number of mice (Balb/c mice; [2]): 1
B4: D 21-D 28 95 percentile rise in the number of mice (Balb/c mice; [2]): 0
A1: difference between a highest median and a D 0 median (95 percentile) (Balb/c mice; [3]): 0.08
A2: whether the 95 percentile of the last sampling is increased compared with the end point (Balb/c mice; [3]): N
Total single peptide (Balb/c mice; [4]): 13.4
A: 95 percentile grouping number score (Balb/c mice; [2]): 3
B: Mouse performance score (Balb/c mice; [2]): 1.7
C1: #A timing-sequence response peptide fragment set (Balb/c mice; [2]): 823
C2: #B vaccine specificity peptide fragment set (Balb/c mice; [2]): 398
C3: Intersection of A and B (Balb/c mice; [2]): 7
C4: Percentage of the intersection in set B (Balb/c mice; [2]): 1.759
C: Timing-sequence response and specificity score (Balb/c mice; [2]): 1
1) 95 percentile grouping number A (Balb/c mice; [5]): 3.5
1) 95 percentile grouping number A1 (Balb/c mice; [5]): 0.05
2) Mouse performance B (Balb/c mice; [5]): 2.4
2) Mouse performance B1 (Balb/c mice; [5]): 4
2) Mouse performance B2 (Balb/c mice; [5]): 4
2) Mouse performance B3 (Balb/c mice; [5]): 1
3) Timing-sequence response and specificity C (Balb/c mice; [5]): 0
3) Timing-sequence response and specificity C1 (Balb/c mice; [5]): 237
3) Timing-sequence response and specificity C2 (Balb/c mice; [5]): 1244
3) Timing-sequence response and specificity C3 (Balb/c mice; [5]): 0
3) Timing-sequence response and specificity C4 (Balb/c mice; [5]): 0.000
Total single peptide (Balb/c mice; [5]): 15.3
1) 95 percentile grouping number A (Balb/c mice; [6]): 5
1) 95 percentile grouping number A1 (Balb/c mice; [6]): 0.08
2) Mouse performance B (Balb/c mice; [6]): 2.5
2) Mouse performance B1 (Balb/c mice; [6]): 3
2) Mouse performance B2 (Balb/c mice; [6]): 4
2) Mouse performance B3 (Balb/c mice; [6]): 2
3) Timing-sequence response and specificity C (Balb/c mice; [6]): 0
3) Timing-sequence response and specificity C1 (Balb/c mice; [6]): 203
3) Timing-sequence response and specificity C2 (Balb/c mice; [6]): 1244
3) Timing-sequence response and specificity C3 (Balb/c mice; [6]): 0
3) Timing-sequence response and specificity C4 (Balb/c mice; [6]): 0.000
Total single peptide (Balb/c mice; [6]): 20
1) 95 percentile grouping number A (Balb/c mice; [7]): 5
1) 95 percentile grouping number A1 (Balb/c mice; [7]): 0.06
2) Mouse performance B (Balb/c mice; [7]): 2.6
2) Mouse performance B1 (Balb/c mice; [7]): 4
2) Mouse performance B2 (Balb/c mice; [7]): 3
2) Mouse performance B3 (Balb/c mice; [7]): 2
3) Timing-sequence response and specificity C (Balb/c mice; [7]): 1
3) Timing-sequence response and specificity C1 (Balb/c mice; [7]): 123
3) Timing-sequence response and specificity C2 (Balb/c mice; [7]): 1244
3) Timing-sequence response and specificity C3 (Balb/c mice; [7]): 2
3) Timing-sequence response and specificity C4 (Balb/c mice; [7]): 0.161
Total single peptide (Balb/c mice; [7]): 20.7
1) 95 percentile grouping number A (Balb/c mice; [8]): 5
1) 95 percentile grouping number A1 (Balb/c mice; [8]): 0.11
2) Mouse performance B (Balb/c mice; [8]): 2.1
2) Mouse performance B1 (Balb/c mice; [8]): 5
2) Mouse performance B2 (Balb/c mice; [8]): 3
2) Mouse performance B3 (Balb/c mice; [8]): 0
3) Timing-sequence response and specificity C (Balb/c mice; [8]): 1
3) Timing-sequence response and specificity C1 (Balb/c mice; [8]): 100
3) Timing-sequence response and specificity C2 (Balb/c mice; [8]): 1244
3) Timing-sequence response and specificity C3 (Balb/c mice; [8]): 3
3) Timing-sequence response and specificity C4 (Balb/c mice; [8]): 0.241
Total single peptide (Balb/c mice; [8]): 19.7
1) 95 percentile grouping number A (Balb/c mice; [9]): 5
1) 95 percentile grouping number A1 (Balb/c mice; [9]): 0.115
2) Mouse performance B (Balb/c mice; [9]): 2.5
2) Mouse performance B1 (Balb/c mice; [9]): 5
2) Mouse performance B2 (Balb/c mice; [9]): 5
2) Mouse performance B3 (Balb/c mice; [9]): 0
3) Timing-sequence response and specificity C (Balb/c mice; [9]): 1
3) Timing-sequence response and specificity C1 (Balb/c mice; [9]): 260
3) Timing-sequence response and specificity C2 (Balb/c mice; [9]): 1244
3) Timing-sequence response and specificity C3 (Balb/c mice; [9]): 3
3) Timing-sequence response and specificity C4 (Balb/c mice; [9]): 0.241
Total single peptide (Balb/c mice; [9]): 20.5
1) 95 percentile grouping number A (Balb/c mice; [10]): 5
1) 95 percentile grouping number A1 (Balb/c mice; [10]): 0.095
2) Mouse performance B (Balb/c mice; [10]): 4.2
2) Mouse performance B1 (Balb/c mice; [10]): 4
2) Mouse performance B2 (Balb/c mice; [10]): 5
2) Mouse performance B3 (Balb/c mice; [10]): 5
3) Timing-sequence response and specificity C (Balb/c mice; [10]): 0
3) Timing-sequence response and specificity C1 (Balb/c mice; [10]): 153
3) Timing-sequence response and specificity C2 (Balb/c mice; [10]): 1244
3) Timing-sequence response and specificity C3 (Balb/c mice; [10]): 0
3) Timing-sequence response and specificity C4 (Balb/c mice; [10]): 0.000
Total single peptide (Balb/c mice; [10]): 23.4
